Structures can show the parent of a compound that is named as a salt. Where two headings read alike, the source gives them in different places.

The IC50 is the concentration needed to halve the response being measured.

One test deals with AMPKa [pT172]. In words: AMPKa activation [pT172] in MCF7 cell. It counts as cell-based.
Another test has as its system HCT116 cells. In words: Inhibitory effect against cancer cell proliferation (MTT). It counts as cell-based, human. The note with it: HCT116, MTT, 48 hours, read-out: IC50 (uM) @ HCT116. The protocol: The formazane crystals thus formed were dissolved using dimethyl sulfoxide (DMSO) and absorbance of the solution was measured at 560 nm. After culturing for 48 hours, […] synthesized in Examples was indicated as cell viability (%) according to each treated concentration.

With `CC1CCN(C(=N)NC(=N)Nc2cccc(C(F)(F)F)c2)CC1.Cl` [Example 50, N1-(4-methyl)piperidin-N5-(3-trifluoromethyl)phenyl Biguanide Hydrochloride], the “AMPKa activation [pT172] (Unit/ml) @ MCF7 cell” value (shortened to “AMPKa activation [pT172]”) is recorded as 8.3 Unit/ml in the test on AMPKa [pT172] (5 uM), 11.5 Unit/ml with AMPKa [pT172] (10 uM) and “cell death” in the test on AMPKa [pT172] (50 uM). For the same compound, the IC50 in the test on HCT116 cells (Homo sapiens, HCT-116) worked out at 6.7 µM.
Taken in the same sequence, the figures for `Cl.N=C(NC(=N)N1CC=CCC1)N1CC=CCC1` [Example 68, N1-1,2,3,6-tetrahydropyridin-N5-1,2,3,6-tetrahydropyridine Biguanide Hydrochloride] were 4.2 Unit/ml, 4.4 Unit/ml, 4.4 Unit/ml and > 100 µM.
In the case of `CC1CCN(C(=N)NC(=N)Nc2ccc(F)cc2)CC1.Cl` [Example 56, N1-(4-methyl)piperidin-N5-(4-fluoro)phenyl Biguanide Hydrochloride], the “AMPKa activation [pT172]” value is 2.7 Unit/ml in the test with AMPKa [pT172] (5 uM), 4.8 Unit/ml in the test with AMPKa [pT172] (10 uM) and 15.4 Unit/ml in the test on AMPKa [pT172] (50 uM). Besides, the IC50 in the test with HCT116 cells (Homo sapiens, HCT-116) came to 48.8 µM.
Consider “N1-(3,5-dimethyl)piperidin-N5-(4-trifluoromethyl)phenyl Biguanide Hydrochloride [Example 63]”, for which the “AMPKa activation [pT172]” value in the test on AMPKa [pT172] (5 uM) is on record as 15.1 Unit/ml; in the test with AMPKa [pT172] (10 uM), 22.9 Unit/ml; in the test with AMPKa [pT172] (50 uM) it was “cell death”. Moreover, in the test on HCT116 cells, the IC50 stood at 2.8 µM.
For `CN1CCN(C(=N)NC(=N)Nc2cc(F)cc(F)c2)CC1.Cl` [Example 39, N1-(4-methyl)piperazin-N5-(3,5-difluoro)phenyl Biguanide Hydrochloride], the “AMPKa activation [pT172]” value is 6.2 Unit/ml in the test with AMPKa [pT172] (5 uM), 7.1 Unit/ml in the test on AMPKa [pT172] (10 uM) and 8.2 Unit/ml in the test on AMPKa [pT172] (50 uM). For the same compound, the IC50 in the test with HCT116 cells (Homo sapiens, HCT-116) is > 100 µM.
As for `COc1ccc(NC(=N)NC(=N)N2CCCCC2)cc1.Cl` [Example 73, N1-piperidin-N5-(4-methoxy)phenyl Biguanide Hydrochloride], the “AMPKa activation [pT172]” value in the test on AMPKa [pT172] (5 uM) came out at 3.9 Unit/ml; in the test with AMPKa [pT172] (10 uM), 4.5 Unit/ml; in the test with AMPKa [pT172] (50 uM) it was 9.1 Unit/ml. For the same compound, the IC50 with HCT116 cells (Homo sapiens, HCT-116) is > 100 µM.
As for `CN1CCN(C(=N)NC(=N)Nc2ccccc2F)CC1.Cl` [Example 34, N1-(4-methyl)piperazin-N5-(2-fluoro)phenyl Biguanide Hydrochloride], the “AMPKa activation [pT172]” value in the test on AMPKa [pT172] (5 uM) is 4.5 Unit/ml; with AMPKa [pT172] (10 uM) it was 3.7 Unit/ml; in the test on AMPKa [pT172] (50 uM), 7.0 Unit/ml. Moreover, the IC50 in the test with HCT116 cells (Homo sapiens, HCT-116) is > 100 µM.
Taken in the same sequence, the figures for `Cl.N=C(N)NC(=N)NCc1ccc(C(F)(F)F)cc1` [Example 141, N1-(4-trifluoromethyl)benzyl Biguanide Hydrochloride] were 5.6 Unit/ml, 6.1 Unit/ml, 10.3 Unit/ml and > 100 µM.
In the case of `CCCN(CCC)C(=N)NC(=N)N1CCCCC1.Cl` [Example 8, N1,N1-dipropyl-N5-piperidine Biguanide Hydrochloride], the “AMPKa activation [pT172]” value is listed as 10.8 Unit/ml with AMPKa [pT172] (5 uM), 12.5 Unit/ml with AMPKa [pT172] (10 uM) and 19.3 Unit/ml in the test with AMPKa [pT172] (50 uM). In the test on HCT116 cells (Homo sapiens, HCT-116), the IC50 was > 100 µM.
Taken in the same sequence, the figures for `CN1CCN(C(=N)NC(=N)NCc2ccc(C(F)(F)F)cc2)CC1.Cl` [Example 18, N1-(4-methyl)piperazin-N5-(4-trifluoromethyl)benzyl Biguanide Hydrochloride] were 7.1 Unit/ml, 8.6 Unit/ml, 13.3 Unit/ml and > 100 µM.
On to `CN1CCN(C(=N)NC(=N)NCc2cccc(C(F)(F)F)c2)CC1.Cl` [Example 20, N1-(4-methyl)piperazin-N5-(3-trifluoromethyl)benzyl Biguanide Hydrochloride], for which the “AMPKa activation [pT172]” value in the test on AMPKa [pT172] (5 uM) was determined as 2.9 Unit/ml; in the test on AMPKa [pT172] (10 uM), 4.5 Unit/ml; with AMPKa [pT172] (50 uM) it was 5.6 Unit/ml. For the same compound, in the test with HCT116 cells (Homo sapiens, HCT-116), the IC50 was > 100 µM.
Taken in the same sequence, the figures for `CN1CCN(C(=N)NC(=N)Nc2ccccc2Cl)CC1.Cl` [Example 30, N1-(4-methyl)piperazin-N5-(2-chloro)phenyl Biguanide Hydrochloride] were 4.2 Unit/ml, 4.0 Unit/ml, 4.2 Unit/ml and > 100 µM.
Regarding `Cl.N=C(N)N/C(=N/CCc1ccccc1)Nc1ccccc1` [Example 94, N1-phenyl-N2-phenethyl Biguanide Hydrochloride], in the test on AMPKa [pT172] (50 uM), the “AMPKa activation [pT172]” value is recorded as 9.0 Unit/ml. Also, in the test on HCT116 cells (Homo sapiens, HCT-116), the IC50 came out at 105 µM.
`Cl.N=C(N)NC(=N)NCCc1ccc(Cl)cc1` [Example 137, N1-(4-chloro)phenethyl Biguanide Hydrochloride]: the “AMPKa activation [pT172]” value in the test with AMPKa [pT172] (5 uM) was found to be 4.1 Unit/ml; in the test with AMPKa [pT172] (10 uM), 7.3 Unit/ml; in the test with AMPKa [pT172] (50 uM), 11.9 Unit/ml. In addition, the IC50 in the test with HCT116 cells (Homo sapiens, HCT-116) was > 100 µM.
Regarding `Cl.N=C(N)NC(=N)N(C1CCCCC1)C1CCCCC1` [Example 136, N1,N1-dicyclohexyl Biguanide Hydrochloride], the “AMPKa activation [pT172]” value with AMPKa [pT172] (50 uM) is 5.9 Unit/ml. Further, in the test with HCT116 cells (Homo sapiens, HCT-116), the IC50 was > 100 µM.
Turning to `Cl.N=C(N)NC(=N)NCc1ccc(Cl)cc1` [Example 129, N1-(4-chloro)benzyl Biguanide Hydrochloride], the “AMPKa activation [pT172]” value is reported as 9.2 Unit/ml in the test with AMPKa [pT172] (5 uM), 7.0 Unit/ml in the test with AMPKa [pT172] (10 uM) and 11.4 Unit/ml in the test with AMPKa [pT172] (50 uM). The IC50 in the test with HCT116 cells (Homo sapiens, HCT-116) is > 100 µM.
In the case of `CCCNC(=N)NC(=N)N.Cl` [Example 114, N1-propyl Biguanide Hydrochloride], the “AMPKa activation [pT172]” value in the test with AMPKa [pT172] (50 uM) is 6.1 Unit/ml. The IC50 in the test with HCT116 cells (Homo sapiens, HCT-116) was 118 µM.
Taken in the same sequence, the figures for `CC(=O)c1ccc(NC(=N)NC(=N)N)cc1.Cl` [Example 117, N1-(4-acetyl)phenyl Biguanide Hydrochloride] were 6.2 Unit/ml and > 100 µM.
Taken in the same sequence, the figures for `Cl.N=C(N)NC(=N)N(Cc1ccccc1)Cc1ccccc1` [Example 130, N1,N1-dibenzyl Biguanide Hydrochloride] were 8.8 Unit/ml and > 100 µM.
The like results for `CC(C)N(C(=N)NC(=N)N)C(C)C.Cl` [Example 115, N1,N1-diisopropyl Biguanide Hydrochloride] were, in that order, 4.8 Unit/ml and > 100 µM.
Regarding `CC1CC(C)CN(C(=N)NC(=N)Nc2ccc(F)cc2)C1.Cl` (stereo not drawn) [Example 64, N1-(3,5-dimethyl)piperidin-N5=(4-fluoro)phenyl Biguanide Hydrochloride], the figures for the “AMPKa activation [pT172]” value in the test on AMPKa [pT172] (5 uM), with AMPKa [pT172] (10 uM) and with AMPKa [pT172] (50 uM) were 2.2 Unit/ml, 4.4 Unit/ml and 31.4 Unit/ml, respectively. Also, the IC50 with HCT116 cells (Homo sapiens, HCT-116) is 36.1 µM.
Taken in the same sequence, the figures for `CCOC1CCN(C(=N)NC(=N)Nc2ccc(C(F)(F)F)cc2)CC1.Cl` [Example 23, N1-(4-ethoxy)piperidin-N5-(4-trifluoromethyl)phenyl Biguanide Hydrochloride] were 7.7 Unit/ml, 6.6 Unit/ml, “cell death” and 12.7 µM.
As to `CC1CCN(C(=N)NC(=N)Nc2ccc(Cl)cc2)CC1.Cl` [Example 55, N1-4-methyl)piperidin-N5-(4-chloro)phenyl Biguanide Hydrochloride], the IC50 in the test with HCT116 cells (Homo sapiens, HCT-116) came to 10.4 µM.
Still for that read-out and setting: the result for `CN1CCN(C(=N)NC(=N)NCc2cccc(Cl)c2)CC1.Cl` [Example 35, N1-(4-methyl)piperazin-N5-3-chloro)benzyl Biguanide Hydrochloride] reads > 100 µM; that for `C/N=C(\NCc1ccccc1)NC(=N)N(C)C` [Example 96, N1-benzyl-N2-methyl-N5,N5-dimethyl Biguanide Hydrochloride], 8.2 µM; that for `C/N=C(\NCCc1ccccc1)NC(=N)N(C)C` [Example 97, N1-phenethyl-N2-methyl-N5,N5-dimethyl Biguanide Hydrochloride], 7.5 µM.
On the same count and under the same terms, as for `CCOC1CCN(C(=N)NC(=N)Nc2cccc(OC(F)(F)F)c2)CC1.Cl` [Example 25, N1-(4-ethoxy)piperidin-N5-3-trifluoromethoxy)phenyl Biguanide Hydrochloride], the figure is 8.4 µM.
On to `N=C(NC(=N)Nc1cccc(Br)c1)Nc1cccc(Br)c1` [Example 11, N1-(3-bromo)phenyl-N5-3-bromo)phenyl Biguanide Hydrochloride], for which the IC50 in the test on HCT116 cells (Homo sapiens, HCT-116) came to 4.8 µM.
`Cl.N=C(NC(=N)N1CCCC1)Nc1ccc(Br)cc1` [Example 72, N1-pyrrolidin-N5-4-bromo)phenyl Biguanide Hydrochloride]: in the test with HCT116 cells (Homo sapiens, HCT-116), the IC50 is 37.7 µM.
With `Cl.N=C(N)NC(=N)Nc1ccc(OC(F)(F)F)cc1` [Example 140, Hydrochloride], the IC50 in the test on HCT116 cells (Homo sapiens, HCT-116) turned out to be 100 µM.
